In PMC9401600 (Chemmedchem, 2022):

How the values were obtained:
[1] = biological target: T1, G9a (Homo sapiens, UniProt Q96KQ7); design: method as in PMID 31141392, PMID 31276898, PMID 29890830, PMID 33661013, PMID 30753076; settings: previously reported, dependent on the assay conditions used; cited from earlier work
T1 construct: purchased BPS Bioscience 52051
T1 sequence (Q96KQ7 1-1210): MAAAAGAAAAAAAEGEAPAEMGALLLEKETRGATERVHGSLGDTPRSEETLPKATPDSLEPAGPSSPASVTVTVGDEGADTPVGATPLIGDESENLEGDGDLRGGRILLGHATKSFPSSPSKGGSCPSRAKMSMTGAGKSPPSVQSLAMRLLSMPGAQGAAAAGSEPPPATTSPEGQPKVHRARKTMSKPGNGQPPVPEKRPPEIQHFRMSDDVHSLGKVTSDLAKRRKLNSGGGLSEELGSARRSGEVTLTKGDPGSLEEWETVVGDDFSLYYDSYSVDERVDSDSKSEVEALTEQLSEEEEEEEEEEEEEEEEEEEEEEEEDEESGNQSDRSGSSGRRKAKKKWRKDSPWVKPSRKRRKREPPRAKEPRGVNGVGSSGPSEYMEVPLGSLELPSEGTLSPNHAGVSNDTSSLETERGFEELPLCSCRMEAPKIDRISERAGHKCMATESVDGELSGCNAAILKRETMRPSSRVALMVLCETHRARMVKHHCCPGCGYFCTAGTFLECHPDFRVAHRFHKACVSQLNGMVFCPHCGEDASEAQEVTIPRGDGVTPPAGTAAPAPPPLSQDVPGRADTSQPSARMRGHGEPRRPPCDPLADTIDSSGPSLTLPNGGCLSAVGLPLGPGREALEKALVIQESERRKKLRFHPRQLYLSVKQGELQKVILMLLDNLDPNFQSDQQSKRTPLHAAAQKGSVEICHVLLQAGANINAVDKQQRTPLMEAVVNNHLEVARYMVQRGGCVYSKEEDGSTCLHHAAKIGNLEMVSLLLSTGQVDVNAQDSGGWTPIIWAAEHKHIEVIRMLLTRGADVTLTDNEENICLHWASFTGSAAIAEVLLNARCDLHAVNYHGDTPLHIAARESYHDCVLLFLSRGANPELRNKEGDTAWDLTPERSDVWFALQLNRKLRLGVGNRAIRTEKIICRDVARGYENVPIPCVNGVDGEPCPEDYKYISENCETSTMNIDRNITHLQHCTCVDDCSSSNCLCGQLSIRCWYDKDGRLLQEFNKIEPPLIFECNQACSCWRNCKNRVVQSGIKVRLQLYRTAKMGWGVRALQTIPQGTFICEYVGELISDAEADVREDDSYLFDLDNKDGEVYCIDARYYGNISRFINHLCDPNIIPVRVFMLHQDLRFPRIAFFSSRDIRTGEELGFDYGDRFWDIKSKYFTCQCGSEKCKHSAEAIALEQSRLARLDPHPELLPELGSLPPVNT

[2] = tested on: Aβ deposits in CL2006 strain; assay: Thioflavin‐S staining of Aβ aggregation; assay type: in vivo, Caenorhabditis elegans; settings: head region, after 5 days of treatment, compared to the vehicle group
Description: The transgenic AD strain CL2006 is characterized by the expression of human Aβ1‐42 under the control of a muscle‐specific promoter, making it suitable to answer this objective in our work. As we mentioned above, UNC0638 was used as a positive control. […] After 5 days of treatment, adult CL2006 C. elegans were fixed in 4 % Paraformaldehyde/Phosphate‐buffered saline (PBS) (pH 7.5), for 24 hours at 4 °C. […] On the last day, nematodes were stained with 0.125 % Thioflavin‐S (ThS) (Sigma, CAS# 1326–12‐1) in 50 % ethanol (EtOH) for 2 min, destained in 50 % EtOH for 2 min, washed 3 times with PBS. To prepare the glass slide for microscopy, approximately 10 μL volume was transferred on a droplet of Fluoromount G (Electron Microscopy Sciences, CAT#17984‐25). Fluorescence images were acquired using a 20 Å∼ objective of a fluorescence microscope. Aβ in the head region of worms were quantified by counting the number of Th−S positive spots using ImageJ and were expressed as Aβ deposits/anterior area.

[3] = biological target: T1, G9a; assay: G9a Homogeneous Assay Kit (AlphaLISA) G9a inhibition; assay type: biochemical
Description: The percentages of G9a activity for the 10 selected molecules were determined at 100 μM S‐adenosylmethionine (SAM) and peptide substrate using AlphaLISA® technology. These percentages were used to calculate the IC50.
G9a inhibitors were serially diluted between 5 nM and 0.001 nM in 100 % DMSO (Sigma, St. Louis, USA). Then, respective concentrations were subsequently diluted in MilliQ purified water to reach a final concentration ranging between 50 and 0.001 μM in 1 % DMSO in well.
Briefly, a sample containing the G9a enzyme is incubated with the biotinylated substrate plus inhibitor solution for two hours. Next, acceptor beads and primary antibody is added, followed by donor beads. Finally, the Alpha‐counts were read using an AlphaScreen microplate reader. The experiment was run per triplicate. G9aactivity(%)=(C-Cb)/(Ct-Cb)x100
Ct=The chemiluminescence reading in the absence of the compound. The data set here is defined as 100 % activity in the absence of the compound.
Cb=The chemiluminescence reading in absence of enzyme. The data set here is defined as 0 % activity in the absence of the enzyme.
C=The chemiluminescence reading in the presence of the compound.
Data analysis was conducted using GraphPad Prism ver. 9 statistical software. The statistical outliers were identified with Grubb's test and excluded from the analysis. Group comparisons were carried out with a One‐way Analysis of variance (ANOVA), followed by the Dunnett post hoc test. In some cases, comparison between groups was also performed by unpaired t‐test or One‐way ANOVA, followed by Fisher's LSD post hoc test. For the calculation of IC50, non‐linear regressions were performed. […] Values are shown as the mean ± Standard error of the mean (SEM) of at least n=3. Statistical significance was considered when p values were <0.05.

[4] = PAMPA‐BBB assay; assay type: in vitro ADME; settings: pig, PAMPA; PBS:EtOH (70 : 30); values as printed in text; read-out: in vitro permeability (Pe), PAMPA‐BBB
Description: To evaluate the brain penetration of the different compounds, a parallel artificial membrane permeation assay for BBB was used, following the method described by Di et al..[33] The in vitro Pe of fourteen commercial drugs through lipid extract of porcine brain membrane together with the test compounds were determined. Commercial drugs and assayed compounds were tested using a mixture of PBS:EtOH (70 : 30).

SMILES: O=C1c2ccccc2-c2onc3c(N4CCCC4)cc(NCCN4CCCC4)c1c23 [Compound 7]
- IC50 [1]: 1.2 µM

SMILES: COc1cc2c(cc1OC)-c1c(C)c3cc(OC)c(OC)cc3c[n+]1CC2 [Compound 8, pseudodehydrocorydaline]
- IC50 [1]: 16.3 µM

SMILES: COc1cc2c(NC3CCN(C(C)C)CC3)nc(C3CCCCC3)nc2cc1OCCCN1CCCC1 [UNC0638, reference compound]
- reduction of Aβ deposition (Thioflavin S‐positive particles) [2]: approximately 25%
- % G9a activity ([3]; 0.0001 µM, first data set of Table S2): 36.4%
- % G9a activity ([3]; 0.0001 µM, second data set of Table S2): 37.2%
- % G9a activity ([3]; 0.0001 µM, third data set of Table S2): 36.8%
- % G9a activity ([3]; 0.001 µM, first data set of Table S2): 34.1%
- % G9a activity ([3]; 0.001 µM, second data set of Table S2): 35.7%
- % G9a activity ([3]; 0.001 µM, third data set of Table S2): 34.9%
- % G9a activity ([3]; 0.01 µM, first data set of Table S2): 17.0%
- % G9a activity ([3]; 0.01 µM, second data set of Table S2): 15.3%
- % G9a activity ([3]; 0.01 µM, third data set of Table S2): 16.1%
- % G9a activity ([3]; 0.1 µM, first data set of Table S2): 7.9%
- % G9a activity ([3]; 0.1 µM, second data set of Table S2): 6.8%
- % G9a activity ([3]; 0.1 µM, third data set of Table S2): 7.0%
- % G9a activity ([3]; 1 µM, first data set of Table S2): 5.2%
- % G9a activity ([3]; 1 µM, second data set of Table S2): 5.8%
- % G9a activity ([3]; 1 µM, third data set of Table S2): 6.3%
- % G9a activity ([3]; 10 µM, first data set of Table S2): 1.9%
- % G9a activity ([3]; 10 µM, second data set of Table S2): 2.6%
- % G9a activity ([3]; 10 µM, third data set of Table S2): 1.9%
- % G9a activity ([3]; 50 µM, first data set of Table S2): 0.1%
- % G9a activity ([3]; 50 µM, second data set of Table S2): 0.7%
- % G9a activity ([3]; 50 µM, third data set of Table S2): 0.3%
- Papp [4]: 6.2 ×10⁻⁶ cm/s
